According to ChEMBL document CHEMBL1268828, “Synthesis of novel pyrrole and pyrrolo[2,3-d]pyrimidine derivatives bearing sulfonamide moiety for evaluation as anticancer and radiosensitizing agents” (Bioorg Med Chem Lett, 2010):

Assays:
HepG2 [1] = assay: Anticancer activity against 4 Gy gamma-irradiated human HepG2 cells assessed as viable cells after 48 hrs at 12.5 uM by SRB assay (reference value: 21.2%); format: functional; conditions: HepG2, light or radiation study, read-out: Activity
HepG2 [2] = assay: Anticancer activity against 4 Gy gamma-irradiated human HepG2 cells assessed as viable cells after 48 hrs at 40 uM by SRB assay (reference value: 21.2%); format: functional; conditions: HepG2, light or radiation study, read-out: Activity
HepG2 [3] = assay: Anticancer activity against human HepG2 cells assessed as viable cells after 48 hrs at 40 uM by SRB assay relative to control; format: functional; conditions: HepG2, 48 h, read-out: Activity
HepG2 [4] = assay: Anticancer activity against 4 Gy gamma-irradiated human HepG2 cells assessed as viable cells after 48 hrs at 25 uM by SRB assay (reference value: 21.2%); format: functional; conditions: HepG2, light or radiation study, read-out: Activity
HepG2 [5] = assay: Cytotoxicity against human HepG2 cells assessed as inhibition of cell proliferation after 24 hrs by SRB assay; format: functional, cell-based; conditions: HepG2, 24 h
MCF7 [6] = assay: Cytotoxicity against human MCF7 cells assessed as inhibition of cell proliferation after 24 hrs by SRB assay; format: functional, cell-based; conditions: MCF7, 24 h
HepG2 [7] = assay: Anticancer activity against human HepG2 cells assessed as viable cells after 48 hrs at 5 uM by SRB assay relative to control; format: functional; conditions: HepG2, 48 h, read-out: Activity
HepG2 [8] = assay: Anticancer activity against human HepG2 cells assessed as viable cells after 48 hrs at 25 uM by SRB assay relative to control; format: functional; conditions: HepG2, 48 h, read-out: Activity
HepG2 [9] = assay: Anticancer activity against human HepG2 cells assessed as viable cells after 48 hrs at 12.5 uM by SRB assay relative to control; format: functional; conditions: HepG2, 48 h, read-out: Activity
HepG2 [10] = assay: Anticancer activity against 4 Gy gamma-irradiated human HepG2 cells assessed as viable cells after 48 hrs at 5 uM by SRB assay (reference value: 21.2%); format: functional; conditions: HepG2, light or radiation study, read-out: Activity
MCF7 [11] = assay: Anticancer activity against human MCF7 cells assessed as viable cells after 48 hrs at 25 uM by SRB assay relative to control; format: functional; conditions: MCF7, 48 h, read-out: Activity
MCF7 [12] = assay: Anticancer activity against 4 Gy gamma-irradiated human MCF7 cells assessed as viable cells after 48 hrs at 40 uM by SRB assay (reference value: 7.3%); format: functional; conditions: MCF7, light or radiation study, read-out: Activity
MCF7 [13] = assay: Anticancer activity against 4 Gy gamma-irradiated human MCF7 cells assessed as viable cells after 48 hrs at 12.5 uM by SRB assay (reference value: 7.3%); format: functional; conditions: MCF7, light or radiation study, read-out: Activity
MCF7 [14] = assay: Anticancer activity against human MCF7 cells assessed as viable cells after 48 hrs at 5 uM by SRB assay relative to control; format: functional; conditions: MCF7, 48 h, read-out: Activity
MCF7 [15] = assay: Anticancer activity against 4 Gy gamma-irradiated human MCF7 cells assessed as viable cells after 48 hrs at 25 uM by SRB assay (reference value: 7.3%); format: functional; conditions: MCF7, light or radiation study, read-out: Activity
MCF7 [16] = assay: Anticancer activity against 4 Gy gamma-irradiated human MCF7 cells assessed as viable cells after 48 hrs at 5 uM by SRB assay (reference value: 7.3%); format: functional; conditions: MCF7, light or radiation study, read-out: Activity
MCF7 [17] = assay: Anticancer activity against human MCF7 cells assessed as viable cells after 48 hrs at 40 uM by SRB assay relative to control; format: functional; conditions: MCF7, 48 h, read-out: Activity
MCF7 [18] = assay: Anticancer activity against human MCF7 cells assessed as viable cells after 48 hrs at 12.5 uM by SRB assay relative to control; format: functional; conditions: MCF7, 48 h, read-out: Activity

| Structure (SMILES) | IC50 (HepG2 [5]) [µM] | IC50 (MCF7 [6]) [µM] | other results |
| --- | --- | --- | --- |
| Nc1nc(=O)[nH]c2c1c(-c1ccccc1)cn2-c1ccc(S(=O)(=O)Nc2nccs2)cc1 | 3.49 | 8.32 | viability at 12.5 µM (HepG2 [1]): 69.2%; viability at 40 µM (HepG2 [2]): 81.7%; viability at 40 µM (HepG2 [3]): 63.6%; viability at 25 µM (HepG2 [4]): 78.3%; viability at 5 µM (HepG2 [7]): 22.3%; viability at 25 µM (HepG2 [8]): 63.9%; viability at 12.5 µM (HepG2 [9]): 47.7%; viability at 5 µM (HepG2 [10]): 61.7% |
| Cc1nc2c(c(-c3ccccc3)cn2-c2ccc(S(=O)(=O)Nc3ccccn3)cc2)c(=O)[nH]1 | 3.15 | 5.1 | – |
| Nc1nc(=O)[nH]c2c1c(-c1ccccc1)cn2-c1ccc(S(=O)(=O)Nc2ccccn2)cc1 | 4.3 | 3.9 | – |
| Nc1nc(=S)[nH]c2c1c(-c1ccccc1)cn2-c1ccc(S(=O)(=O)Nc2nccs2)cc1 | 4.12 | 3.12 | – |
| Nc1nc(=S)[nH]c2c1c(-c1ccccc1)cn2-c1ccc(S(=O)(=O)Nc2ccccn2)cc1 | 4.1 | 3.8 | – |
| O=C(CNc1ccc(S(=O)(=O)Nc2nccs2)cc1)c1ccccc1 | 6.78 | 8.89 | – |
| O=C(CNc1ccc(S(=O)(=O)Nc2ccccn2)cc1)c1ccccc1 | 6.75 | 7.56 | – |
| N#Cc1c(-c2ccccc2)cn(-c2ccc(S(=O)(=O)Nc3nccs3)cc2)c1N | 5.36 | 3.49 | viability at 25 µM (MCF7 [11]): 71.3%; viability at 40 µM (MCF7 [12]): 85.8%; viability at 12.5 µM (MCF7 [13]): 65.3%; viability at 5 µM (MCF7 [14]): 11.3%; viability at 25 µM (MCF7 [15]): 82.3%; viability at 5 µM (MCF7 [16]): 41.5%; viability at 40 µM (MCF7 [17]): 72%; viability at 12.5 µM (MCF7 [18]): 42.5% |
| N#Cc1c(-c2ccccc2)cn(-c2ccc(S(=O)(=O)Nc3ccccn3)cc2)c1N | 5.3 | 4.6 | – |
| O=c1[nH]cnc2c1c(-c1ccccc1)cn2-c1ccc(S(=O)(=O)Nc2nccs2)cc1 | 5.3 | 6.21 | – |
| O=c1[nH]cnc2c1c(-c1ccccc1)cn2-c1ccc(S(=O)(=O)Nc2ccccn2)cc1 | 4.67 | 5.32 | – |
